Results reported in patent US20240238458A1, “COMPOUNDS TARGETING FIBROBLAST-ACTIVATION PROTEIN AND METHODS OF USE THEREOF” (Purdue Research Foundation, priority 2021, published 2024).

Tested on: phosphorylation of Akt
Experiment: Inhibition of phosphorylation of Akt by FAP5-PI3K inhibitors in TGF-β1 stimulated primary HLF (western blot)
Type: cell-based
Conditions: 24 hours and 48 hours of incubation, compounds with non-releasable linkers
Procedure: Primary HLF with passage number #˜8 were seeded in Dulbecco's Modified Eagle Medium (DMEM) with 10% fetal bovine serum (FBS) (˜100,000 cells/well) in 12 well plates to achieve ˜80% confluency. The cells were then starved in DMEM with 0.4% FBS for 24 hours, followed by stimulation by 10 ng/mL transforming growth factor-beta 1 (TGF-β1) for 24 hours.
After stimulation, cells were incubated with the FAP5-PI3K inhibitors for 2 hours, followed by replacement of culture media containing 2 ng/mL TGF-β1 and incubated for 24 hours (see FIG. 21) and 48 hours (see FIG. 22). All wells are added with 0.1% of DMSO as vehicle.
Cells were detached using trypsin and lysed with lysis buffer, proteins from cells were extracted for western blot analysis.

COc1ncc(-c2ccc3nccc(-c4ccc(COC(=O)NCCNC(=O)CCc5cccc6c5CN(C(=O)C[C@@H]5C[C@@H](C(=O)N7CC(F)(F)C[C@H]7C#N)NC5=O)C6)nc4)c3c2)cc1NS(=O)(=O)c1ccc(F)cc1F [FAP5-Carbamate-PI3ki]
inhibition of phosphorylation of Akt (pAkt normalized to tAkt): consistently performed better than FAP5-Ester-PI3Ki and FAP5-PI3Ki-NR
